Test results: PMC3492430, “In Vitro and In Vivo Activity of an Organic Tellurium Compound on Leishmania (Leishmania) chagasi” (PLoS ONE, 2012)

Molecular target: T1, cathepsin B (cathepsin B-like cysteine protease) (Leishmania chagasi, UniProt Q9GQN7)
T1 construct: native enzyme in amastigote lysate
Assay: spectrofluorometric protease assay in amastigote lysate with cathepsin B-specific substrate Abz-Gly-Ile-Val-Arg-Ala-Lys(Dnp)-OH
Assay type: biochemical

T1 sequence (Q9GQN7 entry or part of it): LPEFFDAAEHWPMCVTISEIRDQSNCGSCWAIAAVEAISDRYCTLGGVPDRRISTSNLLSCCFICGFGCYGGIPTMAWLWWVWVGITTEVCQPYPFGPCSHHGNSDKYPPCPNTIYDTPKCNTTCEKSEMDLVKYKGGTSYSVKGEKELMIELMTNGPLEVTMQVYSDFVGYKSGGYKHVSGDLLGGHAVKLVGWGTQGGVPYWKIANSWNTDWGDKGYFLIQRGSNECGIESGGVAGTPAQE

Structure (SMILES) | IC50 [µM]
CCCNC(=O)[C@H]1O[C@@H]1C(=O)N[C@H](C(=O)N1CCC[C@H]1C(=O)O)[C@@H](C)CC [CA074] | 2.41 ± 0.15
COc1ccc([Te]2(Cl)OC3(CCCCC3)/C2=C\Cl)cc1 (centres unmarked) [RF07, 4-{2-Chloro-3-[chloromethylidene]-1-oxa-2-λ^4-telluraspiro[3.5]non-2-yl}phenyl Methyl Ether] | 4.47 ± 0.13
